Literature values in patent US20260108637A1, “USES OF PSMA-TARGETING AND TSPO-TARGETING COMPOUNDS FOR EVALUATION OF INJURIES IN THE PERIPHERAL NERVOUS SYSTEM” (The Johns Hopkins University, priority 2023, published 2026).

Biological target: GCPII (Homo sapiens, UniProt Q04609)
Details: described previously, Chen et al., 2009

Chain of GCPII (Q04609 whole entry, species assumed): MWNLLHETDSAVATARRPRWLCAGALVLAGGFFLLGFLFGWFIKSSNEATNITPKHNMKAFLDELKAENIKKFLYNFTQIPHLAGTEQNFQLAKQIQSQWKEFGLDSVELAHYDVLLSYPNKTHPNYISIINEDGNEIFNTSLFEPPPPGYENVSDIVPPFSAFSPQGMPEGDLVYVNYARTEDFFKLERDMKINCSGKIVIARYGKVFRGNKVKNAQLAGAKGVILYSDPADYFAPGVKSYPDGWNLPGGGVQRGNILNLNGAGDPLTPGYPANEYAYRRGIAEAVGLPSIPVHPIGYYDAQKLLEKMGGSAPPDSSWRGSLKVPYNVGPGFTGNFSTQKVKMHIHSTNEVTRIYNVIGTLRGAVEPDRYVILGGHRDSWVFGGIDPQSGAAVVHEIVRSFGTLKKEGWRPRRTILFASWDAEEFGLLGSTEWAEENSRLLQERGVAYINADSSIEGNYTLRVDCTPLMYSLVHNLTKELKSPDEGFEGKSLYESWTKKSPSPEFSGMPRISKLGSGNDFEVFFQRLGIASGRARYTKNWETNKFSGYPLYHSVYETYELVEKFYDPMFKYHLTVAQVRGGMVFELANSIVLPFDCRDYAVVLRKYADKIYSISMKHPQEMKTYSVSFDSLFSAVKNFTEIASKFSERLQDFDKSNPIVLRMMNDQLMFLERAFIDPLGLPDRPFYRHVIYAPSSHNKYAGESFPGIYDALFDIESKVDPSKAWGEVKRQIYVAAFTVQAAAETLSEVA

CC1(C)C(/C=C/C2=C(Oc3ccc(S(=O)(=O)O)cc3)C(=C/C=C3/N(CCCCS(=O)(=O)O)c4ccc(S(=O)(=O)O)cc4C3(C)C)/CCC2)=[N+](CCCCCC(=O)NCCCCC(NC(=O)CCCCCCC(=O)NCCCC[C@H](NC(=O)N[C@@H](CCC(=O)O)C(=O)O)C(=O)O)C(=O)O)c2ccc(S(=O)(=O)[O-])cc21 (stereo partly shown) [YC27]
Ki: 0.37 nM
